Source: ChEMBL document CHEMBL1148364, “Structure-based design, synthesis, and structure-activity relationship studies of novel non-nucleoside adenosine deaminase inhibitors” (J Med Chem, 2004)

How the values were obtained:
Adenosine deaminase = target: T1, Adenosine deaminase (Homo sapiens, UniProt P00813)
T1 sequence (P00813 whole entry): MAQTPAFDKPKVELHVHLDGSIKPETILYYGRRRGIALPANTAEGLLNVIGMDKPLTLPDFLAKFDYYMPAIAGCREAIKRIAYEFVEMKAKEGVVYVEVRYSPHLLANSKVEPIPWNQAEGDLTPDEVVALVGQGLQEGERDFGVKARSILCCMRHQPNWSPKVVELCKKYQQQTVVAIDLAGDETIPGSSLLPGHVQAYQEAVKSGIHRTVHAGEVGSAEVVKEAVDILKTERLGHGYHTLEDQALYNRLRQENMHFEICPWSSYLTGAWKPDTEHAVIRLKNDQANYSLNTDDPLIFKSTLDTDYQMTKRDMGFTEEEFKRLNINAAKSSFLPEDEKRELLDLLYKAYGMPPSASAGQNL
Description: Inhibition of human adenosine deaminase (ADA)

[1] = AUC 0-8 hr value in rats at 10 mg/kg; assay type: ADME, organism-based; design: time < 8 hr, dose 10 mg/kg; conditions: rat, plasma
[2] = Oral bioavailability in rats at 10 mg/kg; assay type: ADME, organism-based; conditions: rat, in vivo
[3] = Cmax value in rats at 10 mg/kg; assay type: ADME, organism-based; design: dose 10 mg/kg; conditions: rat, in vivo

Row | Compound | Ki (Adenosine deaminase) | other results
1 | NC(=O)c1cn([C@@H](CO)CCn2ccc3ccc(NC(=O)CCCCCc4ccccc4)cc32)cn1 | 91 nM | 
2 | CC(=O)Nc1ccc2ccn(CC[C@H](CO)n3cnc(C(N)=O)c3)c2c1 | 1300 nM | 
3 | COc1ccc(CCC(=O)Nc2ccc3ccn(CC[C@H](CO)n4cnc(C(N)=O)c4)c3c2)cc1 | 57 nM | 
4 | NC(=O)c1cn([C@@H](CO)CCn2ccc3ccc(NC(=O)CCc4cccnc4)cc32)cn1 | 17 nM | 
5 | CCCCCC(=O)Nc1ccc2ccn(CC[C@H](CO)n3cnc(C(N)=O)c3)c2c1 | 24 nM | 
6 | NC(=O)c1cn([C@@H](CO)CCn2ccc3ccc(OCCCc4ccc(Cl)cc4)cc32)cn1 | 13 nM | 
7 | Cc1ccc(CCC(=O)Nc2ccc3ccn(CC[C@H](CO)n4cnc(C(N)=O)c4)c3c2)cc1 | 38 nM | 
8 | NC(=O)c1cn([C@@H](CO)CCn2ccc3ccc(OCCCCc4ccccc4)cc32)cn1 | 12 nM | 
9 | CCCCCCOc1ccc2c(ccn2CC[C@H](CO)n2cnc(C(N)=O)c2)c1 | 6200 nM | 
10 | NC(=O)c1cn([C@@H](CO)CCn2ccc3cc(OCCCc4ccccc4)ccc32)cn1 | 1900 nM | 
11 | Cc1ccc(CCCC(=O)Nc2ccc3ccn(CC[C@H](CO)n4cnc(C(N)=O)c4)c3c2)cc1 | 34 nM | 
12 | CCCCCCOc1ccc2c(c1)c(CC[C@H](CO)n1cnc(C(N)=O)c1)cn2C | 13 nM | 
13 | CCCCCCOc1ccc2ccn(CC[C@H](CO)n3cnc(C(N)=O)c3)c2c1 | 55 nM | 
14 | Cn1cc(CC[C@H](CO)n2cnc(C(N)=O)c2)c2cc(OCCCc3ccc(Cl)cc3)ccc21 | 4.9 nM | AUC(0-t) at 8 h [1]: 260 ng·h/mL; bioavailability [2]: 10%; Cmax [3]: 210 ng/mL
15 | CCCCOc1ccc2ccn(CC[C@H](CO)n3cnc(C(N)=O)c3)c2c1 | 240 nM | 
16 | NC(=O)c1cn([C@@H](CO)CCn2ccc3ccc(OCCCc4ccccc4)cc32)cn1 | 17 nM | 
